Test results published in ChEMBL document CHEMBL3616371, “Synthesis of BF₃ catalyzed Mannich derivatives with excellent ee from phenylpropanolamine, study of their antimicrobial activity and molecular docking” (2015).
Converted amounts (≈) assume the structure as drawn.

Tests used:
Staphylococcus aureus [1] = assay: Antibacterial activity against Staphylococcus aureus after 24 hrs by two fold serial dilution method; assay type: functional
Klebsiella aerogenes [2] = assay: Antibacterial activity against Enterobacter aerogenes assessed as growth inhibition at 1 mg/well after 24 hrs by Well method; assay type: functional
Proteus vulgaris [3] = assay: Antibacterial activity against Proteus vulgaris assessed as growth inhibition at 1 mg/well after 24 hrs by Well method; assay type: functional
Klebsiella aerogenes [4] = assay: Antibacterial activity against Enterobacter aerogenes after 24 hrs by two fold serial dilution method; assay type: functional
Micrococcus luteus [5] = assay: Antibacterial activity against Micrococcus luteus assessed as growth inhibition at 1 mg/well after 24 hrs by Well method; assay type: functional
Staphylococcus aureus [6] = assay: Antibacterial activity against methicillin-resistant Staphylococcus aureus assessed as growth inhibition at 1 mg/well after 24 hrs by Well method; assay type: functional
Klebsiella pneumoniae [7] = assay: Antibacterial activity against Klebsiella pneumoniae after 24 hrs by two fold serial dilution method; assay type: functional
Staphylococcus aureus [8] = assay: Antibacterial activity against Staphylococcus aureus assessed as growth inhibition at 1 mg/well after 24 hrs by Well method; assay type: functional
[9] = test system: Salmonella enterica subsp. enterica serovar Paratyphi B; assay: Antibacterial activity against Salmonella paratyphi B after 24 hrs by two fold serial dilution method; assay type: functional
Staphylococcus aureus [10] = assay: Antibacterial activity against methicillin-resistant Staphylococcus aureus after 24 hrs by two fold serial dilution method; assay type: functional
[11] = test system: Salmonella enterica subsp. enterica serovar Paratyphi B; assay: Antibacterial activity against Salmonella paratyphi B assessed as growth inhibition at 1 mg/well after 24 hrs by Well method; assay type: functional
Salmonella typhimurium [12] = assay: Antibacterial activity against Salmonella typhimurium after 24 hrs by two fold serial dilution method; assay type: functional, Salmonella enterica subsp. enterica serovar Typhimurium; conditions: Salmonella enterica
Pseudomonas aeruginosa [13] = assay: Antibacterial activity against Pseudomonas aeruginosa assessed as growth inhibition at 1 mg/well after 24 hrs by Well method; assay type: functional
Shigella flexneri [14] = assay: Antibacterial activity against Shigella flexneri after 24 hrs by two fold serial dilution method; assay type: functional
Proteus vulgaris [15] = assay: Antibacterial activity against Proteus vulgaris after 24 hrs by two fold serial dilution method; assay type: functional
Bacillus subtilis [16] = assay: Antibacterial activity against Bacillus subtilis assessed as growth inhibition at 1 mg/well after 24 hrs by Well method; assay type: functional
Pseudomonas aeruginosa [17] = assay: Antibacterial activity against Pseudomonas aeruginosa after 24 hrs by two fold serial dilution method; assay type: functional
Klebsiella pneumoniae [18] = assay: Antibacterial activity against Klebsiella pneumoniae assessed as growth inhibition at 1 mg/well after 24 hrs by Well method; assay type: functional
Bacillus subtilis [19] = assay: Antibacterial activity against Bacillus subtilis after 24 hrs by two fold serial dilution method; assay type: functional
Salmonella typhimurium [20] = assay: Antibacterial activity against Salmonella typhimurium assessed as growth inhibition at 1 mg/well after 24 hrs by Well method; assay type: functional, Salmonella enterica subsp. enterica serovar Typhimurium
Shigella flexneri [21] = assay: Antibacterial activity against Shigella flexneri assessed as growth inhibition at 1 mg/well after 24 hrs by Well method; assay type: functional
Micrococcus luteus [22] = assay: Antibacterial activity against Micrococcus luteus after 24 hrs by two fold serial dilution method; assay type: functional
Malassezia pachydermatis [23] = assay: Antifungal activity against Malassezia pachydermatis after 48 to 72 hrs by two fold serial dilution method; assay type: functional
[24] = test system: Staphylococcus epidermidis; assay: Antibacterial activity against Staphylococcus epidermidis assessed as growth inhibition at 1 mg/well after 24 hrs by Well method; assay type: functional
[25] = test system: Staphylococcus epidermidis; assay: Antibacterial activity against Staphylococcus epidermidis after 24 hrs by two fold serial dilution method; assay type: functional
Candida albicans [26] = assay: Antifungal activity against Candida albicans after 48 to 72 hrs by two fold serial dilution method; assay type: functional
Malassezia pachydermatis [27] = assay: Antifungal activity against Malassezia pachydermatis assessed as growth inhibition at 1 mg/well after 48 hrs by Well method; assay type: functional
Candida albicans [28] = assay: Antifungal activity against Candida albicans assessed as growth inhibition at 1 mg/well after 48 hrs by Well method; assay type: functional
Aspergillus flavus [29] = assay: Antifungal activity against Aspergillus flavus assessed as growth inhibition at 1 mg/well after 48 hrs by Well method; assay type: functional
Aspergillus flavus [30] = assay: Antifungal activity against Aspergillus flavus after 48 to 72 hrs by two fold serial dilution method; assay type: functional

| SMILES | MIC (Staphylococcus aureus [1]) [µg/mL] | inhibition zone (IZ) (Klebsiella aerogenes [2]) [mm] | inhibition zone (IZ) (Proteus vulgaris [3]) [mm] | MIC (Klebsiella aerogenes [4]) [µg/mL] | inhibition zone (IZ) (Micrococcus luteus [5]) [mm] | inhibition zone (IZ) (Staphylococcus aureus [6]) [mm] | inhibition zone (IZ) (Staphylococcus aureus [8]) [mm] | MIC [9] [µg/mL] | MIC (Staphylococcus aureus [10]) [µg/mL] | inhibition zone (IZ) [11] [mm] | MIC (Salmonella typhimurium [12]) [µg/mL] | inhibition zone (IZ) (Pseudomonas aeruginosa [13]) [mm] | MIC (Shigella flexneri [14]) [µg/mL] | MIC (Proteus vulgaris [15]) [µg/mL] | inhibition zone (IZ) (Bacillus subtilis [16]) [mm] | MIC (Pseudomonas aeruginosa [17]) [µg/mL] | MIC (Bacillus subtilis [19]) [µg/mL] | inhibition zone (IZ) (Salmonella typhimurium [20]) [mm] | inhibition zone (IZ) (Shigella flexneri [21]) [mm] | MIC (Micrococcus luteus [22]) [µg/mL] | other results |
| --- | --- | --- | --- | --- | --- | --- | --- | --- | --- | --- | --- | --- | --- | --- | --- | --- | --- | --- | --- | --- | --- |
| CN[C@@H]1[C@H](O[C@H]2[C@H](O[C@H]3[C@H](O)[C@@H](O)[C@H](N=C(N)N)[C@@H](O)[C@@H]3N=C(N)N)O[C@@H](C)[C@]2(O)C=O)O[C@@H](CO)[C@H](O)[C@H]1O [STREPTOMYCIN] | 6.25 (≈ 10.7 µM) | 22 | 30 | 25 (≈ 43 µM) | 26 | 30 | 14 | 30 (≈ 51.6 µM) | 6.25 (≈ 10.7 µM) | 18 | 6.25 (≈ 10.7 µM) | 30 | 6.25 (≈ 10.7 µM) | 6.25 (≈ 10.7 µM) | 22 | 25 (≈ 43 µM) | 25 (≈ 43 µM) | 24 | 30 | 6.25 (≈ 10.7 µM) | MIC (Klebsiella pneumoniae [7]): 25 µg/mL (≈ 43 µM); inhibition zone (IZ) (Klebsiella pneumoniae [18]): 20 mm |
| C[C@H](NCCC(=O)c1cccc([N+](=O)[O-])c1)[C@H](O)c1ccccc1.Cl | 50 | 16 | 18 | 50 | 19 | 15 | 15 | > 50 | 50 | 12 | 50 | 16 | 50 | 50 | 15 | 50 | 50 | 17 | 16 | 50 | MIC (Malassezia pachydermatis [23]): > 50 µg/mL; inhibition zone (IZ) [24]: 19 mm; MIC [25]: 50 µg/mL; MIC (Candida albicans [26]): > 50 µg/mL; inhibition zone (IZ) (Malassezia pachydermatis [27]): 13 mm; inhibition zone (IZ) (Candida albicans [28]): 12 mm |
| C[C@@H](NCCC(=O)c1ccc(Cl)cc1Cl)[C@@H](O)c1ccccc1.Cl | 3.13 | 35 | 33 | 3.13 | 28 | 34 | 37 | 50 | 3.13 | 16 | 3.13 | 24 | 3.13 | 3.13 | 26 | 6.25 | 6.25 | 34 | 32 | 6.25 | inhibition zone (IZ) [24]: 34 mm; MIC [25]: 3.13 µg/mL |
| CC(=O)N1CCN(c2ccc(OCC3COC(Cn4ccnc4)(c4ccc(Cl)cc4Cl)O3)cc2)CC1 (centres undefined) [KETOCONAZOLE] |  |  |  |  |  |  |  |  |  |  |  |  |  |  |  |  |  |  |  |  | inhibition zone (IZ) (Aspergillus flavus [29]): 24 mm; MIC (Malassezia pachydermatis [23]): 25 µg/mL (≈ 47 µM); MIC (Aspergillus flavus [30]): < 12.5 µg/mL; MIC (Candida albicans [26]): 25 µg/mL (≈ 47 µM); inhibition zone (IZ) (Malassezia pachydermatis [27]): 26 mm; inhibition zone (IZ) (Candida albicans [28]): 28 mm |
| COc1ccc(C(=O)CCN[C@@H](C)[C@H](O)c2ccccc2)cc1.Cl | 50 | 20 | 21 | 50 | 23 | 20 | 18 | 50 | 50 | 20 | 50 | 20 | 50 | 50 | 19 | 25 | 25 | 17 | 21 | 25 | inhibition zone (IZ) (Aspergillus flavus [29]): 10 mm; MIC (Klebsiella pneumoniae [7]): > 50 µg/mL; MIC (Aspergillus flavus [30]): > 50 µg/mL; inhibition zone (IZ) [24]: 22 mm; MIC [25]: 25 µg/mL; inhibition zone (IZ) (Klebsiella pneumoniae [18]): 12 mm |
| COc1ccc(C(=O)CCN[C@H](C)[C@@H](O)c2ccccc2)cc1.Cl | 12.5 | 19 | 22 | 12.5 | 19 | 22 | 20 |  | 6.25 | 14 | 25 | 18 | 25 | 12.5 | 22 | 25 | 25 | 18 | 24 | 12.5 | inhibition zone (IZ) (Aspergillus flavus [29]): 16 mm; MIC (Klebsiella pneumoniae [7]): > 50 µg/mL; MIC (Malassezia pachydermatis [23]): > 50 µg/mL; MIC (Aspergillus flavus [30]): 50 µg/mL; inhibition zone (IZ) [24]: 24 mm; MIC [25]: 6.25 µg/mL; inhibition zone (IZ) (Klebsiella pneumoniae [18]): 16 mm |
| C[C@H](NCCC(=O)c1ccc(Cl)cc1)[C@H](O)c1ccccc1.Cl | 50 | 25 | 25 | 50 | 28 | 29 | 26 | > 50 | 25 |  | 50 | 20 | 25 | 25 | 19 | 25 | 25 | 24 | 22 | 50 | inhibition zone (IZ) (Aspergillus flavus [29]): 15 mm; MIC (Klebsiella pneumoniae [7]): 50 µg/mL; MIC (Aspergillus flavus [30]): 50 µg/mL; inhibition zone (IZ) [24]: 28 mm; MIC [25]: 25 µg/mL; inhibition zone (IZ) (Malassezia pachydermatis [27]): 12 mm; inhibition zone (IZ) (Klebsiella pneumoniae [18]): 11 mm |
